# Experimental data from patent publication US8188148B2, “Substituted 1,3-diphenylpropane derivatives, preparations and uses thereof” (Genfit, priority 2006, dated 2012).
# Experiments:
# [1] = test system: ApoE2/E2 mouse; assay: In vivo evaluation on ApoE2/E2 mouse: body weight and plasma lipids; details: E2/E2 mouse, 5, 10, and 50 mpk per os, 8 days, vs control
# Description: The dyslipidemic E2/E2 mouse's body weight, rates of total cholesterol, triglycerides and of plasma free fatty acids are measured after 8 days of a per os treatment with the compounds according to the invention.
# The murine model used is the ApoE2/E2 mouse, a transgenic mouse having the human apolipoprotein E isoform E2 (Sullivan P M et al., 1998). In human, this apolipoprotein, a constituent of low and very low density lipoproteins (LDL-VLDL), is present in three isoforms E2, E3, and E4. The E2 form presents a mutation affecting the amino acid of position 158, which considerably weakens the affinity of this protein for the receptors to LDL receptors. Accordingly, the VLDL clearance is nearly non-existent. An accumulation of low-density lipoproteins then occurs along with a mixed hyperlipidemia known as of type III (high cholesterol and triglycerides rates).
# The ApoE2/E2 transgenic mice were kept on a 12 hour/12 hour light/dark cycle at a constant temperature of 20±3° C. After a one week acclimatization period, the mice were weighed and divided into groups of 6 animals selected so as to render uniform the distribution of their body weights and plasma lipid rates, determined before the experiment. The tested compounds were suspended in carboxymethylcellulose (Sigma C4888) and administered by intra-gastric tube feeding, once a day for 8 days at the chosen dosage. The animals had free access to food and water (standard diet). Taking of food and weight gain are recorded throughout the experiment. At the end of the experiment, the animals were anesthetized after a 4 hour fast, a blood sample was taken using (EDTA) anticoagulant, then the mice were weighed and euthanized. The plasma was prepared by centrifugation at 3000 rotations/minute for 20 minutes. The samples were kept at +4° C.
# Plasma lipid concentrations (total cholesterol and triglycerides) are measured by enzymatic dosages (bioMérieux-Lyon-France) according to the provider's recommendations.
# Plasma cholesterol and triglycerides rates are measured after 8 days of a per os treatment with the compounds according to the invention. These rates are compared with those obtained with control animals (not treated with compounds according to the invention).
# Low-density lipoproteins (VLDL and LDL) are precipitated by Phosphotungstate. The precipitate is eliminated by centrifugation. HDL cholesterol present in the supernatant is measured by enzymatic dosages (bioMérieux-Lyon-France) in accordance with the provider's recommendations.
# [2] = test system: PPARs target genes (PDK4, ApoCIII); assay: Hepatic gene expression by quantitative RT-PCR in E2/E2 mouse; assay type: in vivo; details: E2/E2 mouse, 5, 10, and 50 mpk, 8 days, normalized to 36B4
# Description: The effectiveness of the compounds according to the invention is also evaluated by measuring, in the hepatic tissue, the expression of genes involved in lipid and/or glucid metabolism and in energy dissipation. Each level of gene expression is normalized regarding the expression level of the reference gene 36B4. The induction factor, i.e. the ratio between the relative signal (induced by the compound according to the invention) and the average of the relative values obtained with the control group, is then calculated. The higher the induction factor is, the more the compound promotes hepatic gene expression. […]
# The agonist properties of PPARα previously measured in vitro should, in the liver, lead to an over-expression of the target genes directly under the control of the PPARα. […]
# Gene expression analysis by quantitative RT-PCR Total RNA is extracted from liver fragments by using a NucleoSpin® 96 RNA kit (Macherey Nagel, Hoerdt, France) according to the manufacturer's instructions.
# 1 μg of total RNA (quantified by using the Ribogreen RNA quantification kit (Molecular Probes)) is then reverse-transcribed into complementary DNA by means of a 1 hour reaction at 37° C. in a total volume of 20 μl containing a 1× buffer (Sigma), 1.5 mM of DTT, 0.18 mM of dNTPs (Promega), 200 ng of pdN6 (Amersham), 30 U of RNase inhibitor (Sigma), and 1 μl of MMLV-RT (Sigma). […]
smiles,measurement,setting,value
"Cc1cc(CCC(=O)c2ccc(OC(F)(F)F)cc2)cc(C)c1OC(C)(C)C(=O)O [Compound 1, 2-[2,6-dimethyl-4-[3-[4-(trifluoromethyloxy)phenyl]-3-oxo-propyl]phenoxy]-2-methyl-propanoic acid]",body weight gain,[1],weight loss
same,plasma HDL-cholesterol,[1],significantly increased
same,plasma free fatty acids,[1],decreased very significantly
same,plasma total cholesterol,[1],significantly reduced
same,plasma triglycerides,[1],decreased very significantly
same,hepatic expression of the gene coding for ApoCIII,[2],reduction
same,hepatic expression of the gene coding for PDK4,[2],significant increase
